Patent US9447408B2, “Method of efficiently establishing induced pluripotent stem cells” (Kyoto University, priority 2010, dated 2016)

Legend:
[1] = test system: Mouse embryonic fibroblasts (MEFs); experiment: iPS cell establishment from Nanog-GFP reporter MEFs, 4 genes (Oct3/4, Sox2, Klf4, c-Myc) introduced, with p38 inhibitors; assay type: cell-based
Description: Mouse embryonic fibroblasts (MEFs) from a Nanog reporter mouse carrying Nanog-GFP—IRES-Puro^r [Okita K. et al, Nature 448, 313-317 (2007)] were transfected with four genes using a retrovirus to induce iPS cells.
Each retrovirus for reprogramming was prepared by transferring each of retroviral expression vectors (pMXs-Oct3/4, pMXs-Sox2, pMXs-Klf4, pMXs-cMyc:Cell, 126, 663-676 (2006)) to Plat-E cells (Morita, S. et al., Gene Ther. 7, 1063-1066) that had been seeded to a 6-well culture plate (Falcon) at 0.6×10^6 cells per well on the day before. The cells were cultured at 37° C. in the presence of 5% CO2 using DMEM/10% FCS [a culture broth prepared by adding 10% fetal calf serum to DMEM (Nacalai Tesque)]. To facilitate vector transfer, 4.5 μL of FuGene6 transfection reagent (Roche) was placed in 100 μL of Opti-MEM I Reduced-Serum Medium (Invitrogen), and the medium was allowed to stand at room temperature for 5 minutes. Subsequently, 1.5 μg of each expression vector was added, and the medium was allowed to further stand at room temperature for 15 minutes, after which they were added to the Plat-E culture broth. On day 2, the Plat-E supernatant was replaced with a fresh supply of the medium. On day 3, the culture supernatant was recovered and filtered through a 0.45 μm sterile filter (Whatman), and polybrene (Nacalai) was added at 4 μg/mL to yield a viral liquid.
Mouse embryonic fibroblasts (MEFs) were isolated from a fetal Nanog reporter mouse (13.5 days after fertilization). […] Not expressing the puromycin resistance gene as well, MEFs are susceptible to the antibiotic puromycin. As such, MEFs were seeded to a 6-well culture plate (Falcon), previously coated with 0.1% gelatin (Sigma), at 1.0×10^5 cells per well. DMEM/10% FCS served as the culture broth at 37° C. in the presence of 5% CO2. The following day, each retrovirus liquid was added, and this was followed by overnight infection to introduce the genes.
On day 1 after the viral infection, the medium for the MEFs was removed, and the cells were washed by the addition of 1 mL of PBS. After removing the PBS, 0.25% Trypsin/1 mM EDTA (Invitrogen) was added, and a reaction was carried out at 37° C. for about 5 minutes. After the cells floated up, the cells were suspended by the addition of an ES cell culture medium and 2500 cells were seeded to a 100 mm dish having mitomycin C-treated STO feeder cells seeded thereto previously. Cultivation was continued while replacing the ES cell culture medium with a fresh supply of the same medium every two days until a visible colony emerged.
To determine the effects of p38 inhibitors on the establishment of iPS cells by the introduction of the four mouse genes, cultivation was continued with the addition of 10 μM of the p38 inhibitor 5B202190, SB239063, or SB203580 (Calbiochem Company) to the medium per the schedule shown below. All these inhibitors were used in solution in DMSO. • 1. Oct3/4, Sox2, Klf4, c-Myc, each derived from mouse, saline • 2. Oct3/4, Sox2, Klf4, c-Myc, each derived from mouse, DMSO • 3. Oct3/4, Sox2, Klf4, c-Myc, each derived from mouse, SB202190 10 μM Day 1-4) • 4. Oct3/4, Sox2, Klf4, c-Myc, each derived from mouse, SB202190 10 μM (Day 1-8) • 5. Oct3/4, Sox2, Klf4, c-Myc, each derived from mouse, SB202190 10 μM (Day 9-16) • 6. Oct3/4, Sox2, Klf4, c-Myc, each derived from mouse, SB202190 10 μM (Day 1-16) • 7. Oct3/4, Sox2, Klf4, c-Myc, each derived from mouse, SB239063 10 μM (Day 1-4) • 8. Oct3/4, Sox2, Klf4, c-Myc, each derived from mouse, SB239063 10 μM (Day 1-8) • 9. Oct3/4, Sox2, Klf4, c-Myc, each derived from mouse, SB239063 10 μM (Day 9-16) • 10. Oct3/4, Sox2, Klf4, c-Myc, each derived from mouse, SB239063 10 μM (Day 1-16) • 11. Oct3/4, Sox2, Klf4, c-Myc, each derived from mouse, SB203580 10 μM (Day 1-4) • 12. Oct3/4, Sox2, Klf4, c-Myc, each derived from mouse, SB203580 10 μM (Day 1-8) • 13. Oct3/4, Sox2, Klf4, c-Myc, each derived from mouse, SB203580 10 μM (Day 9-16) • 14. […]

[2] = test system: Mouse embryonic fibroblasts (MEFs); experiment: iPS cell establishment from MEFs, 3 genes (Oct3/4, Sox2, Klf4) introduced, with p38 inhibitors; assay type: cell-based; conditions: 10 μM inhibitor added in the initial stage after the infection
Description: Three genes were introduced using a retrovirus by the same experimental procedures as the above. The cells were cultured at a cell density of 2×10^4 cells/10 cm dish, with the addition of 10 μM of SB202190, SB239063, or SB203580 (Calbiochem Company) to the medium per the schedule shown below, and the establishment efficiency was compared. • 1. Oct3/4, Sox2, Klf4, each derived from mouse, saline • 2. Oct3/4, Sox2, Klf4, each derived from mouse, DMSO • 3. Oct3/4, Sox2, Klf4, each derived from mouse, SB202190 10 μM (Day 1-4) • 4. Oct3/4, Sox2, Klf4, each derived from mouse, SB202190 10 μM (Day 1-8) • 5. Oct3/4, Sox2, Klf4, each derived from mouse, SB202190 10 μM (Day 9-16) • 6. Oct3/4, Sox2, Klf4, each derived from mouse, SB202190 10 μM (Day 1-16) • 7. Oct3/4, Sox2, Klf4, each derived from mouse, SB239063 10 μM (Day 1-4) • 8. Oct3/4, Sox2, Klf4, each derived from mouse, SB239063 10 μM (Day 1-8) • 9. Oct3/4, Sox2, Klf4, each derived from mouse, SB239063 10 μM (Day 9-16) • 10. Oct3/4, Sox2, Klf4, each derived from mouse, SB239063 10 μM (Day 1-16) • 11. Oct3/4, Sox2, Klf4, each derived from mouse, SB203580 10 μM (Day 1-4) • 12. Oct3/4, Sox2, Klf4, each derived from mouse, SB203580 10 μM (Day 1-8) • 13. Oct3/4, Sox2, Klf4, each derived from mouse, SB203580 10 μM (Day 9-16) • 14. Oct3/4, Sox2, Klf4, each derived from mouse, SB203580 10 μM (Day 1-16),

## C[S+]([O-])c1ccc(-c2nc(-c3ccc(F)cc3)c(-c3ccncc3)[nH]2)cc1 (stereo not drawn) [SB203580, 4-(4-fluorophenyl)-2-(4-methylsulfinylphenyl)-5-(4-pyridyl)-1H-imidazole]
[1]; 10 μM inhibitor on days 1 to 4, counted day 28
  effect on colony count when measured on day 28 after the infection: remarkable
[1]; 10 μM inhibitor on days 1 to 4 after the infection, FIG. 1
  colony count compared with cells treated with physiological saline or DMSO: tended to increase
[2]
  number of positive cells compared with DMSO treatment: increased
